The values that follow come from patent publication US20190358214A1, “Compositions and Methods for Treating HCV Infection” (AbbVie Inc., priority 2016, published 2019).

A short description of data set [1]: 4-day repeat dose dog liver biopsy study. The following applies: Compound 1 dosed orally at 1 mg/kg. The class given is in vivo. The protocol:
(§1) This was believed to be attributed to the unique prodrug moiety in Compound 1, which is different from that in sofosbuvir. See paragraphs [0017]. [0018] and [0019] of U.S. patent application Ser. No. 15/254,342. In 4-day repeat dose dog liver biopsy study, Compound 1 dosed orally at 1 mg/kg delivered the similar liver triphosphate levels as sofosbuvir dosed orally at 5 mg/kg. Further modeling provided that 75 mg Compound 1 once daily dosing in human patients would match the liver triphosphate Cmax achieved by 400 mg sofosbuvir once daily dosing, that 80 mg Compound 1 once daily dosing in human patients would match the liver triphosphate AUC0-24 achieved by 400 mg sofosbuvir once daily dosing, and that 16 mg Compound 1 once daily dosing in human patients would maintain Cmin above GT1b polymerase EC50. The model that was used to translate dog study results to human liver pharmacokinetics was validated by sofosbuvir data.

The nature of data set [2]: modeling translating dog study results to human liver pharmacokinetics. The following applies: modeled from dog study, once daily dosing. The protocol: as §1
For data set [3] the following is noted: as described in Example 41 of U.S. patent application Ser. No. 15/254,342; cited from earlier work.

With `CCOC(=O)C(C)(C)N[P@](=O)(OC[C@H]1O[C@@H](n2ccc(=O)[nH]c2=O)[C@@](F)(Br)[C@@H]1O)Oc1ccccc1` [Compound 1], the “liver triphosphate levels compared with sofosbuvir dosed orally at 5 mg/kg” value in data set [1] is on record as “similar”. Further, in data set [2], the “once daily dose in human patients that would maintain Cmin above GT1b polymerase EC50” value worked out at 16 mg, the “once daily dose in human patients that would match the liver triphosphate AUC0-24 achieved by 400 mg sofosbuvir once daily” value was 80 mg and the “once daily dose in human patients that would match the liver triphosphate Cmax achieved by 400 mg sofosbuvir once daily” value turned out to be 75 mg. Moreover, the “active triphosphate profiles as compared to sofosbuvir” value in data set [3] is “significantly improved”.
